We go through 21 compounds from US20220370429A1, “AROMATIC HETEROCYCLIC COMPOUND HAVING TRICYCLIC STRUCTURE, AND PREPARATION METHOD THEREFOR AND APPLICATION THEREOF” (SHANGHAI LONGWOOD BIOPHARMACEUTICALS CO., LTD., priority 2019, published 2022).

This assay deals with T1, PD-1/PD-L1 (Homo sapiens, UniProt Q9NZQ7).
T1 construct: Recombinant human PD-L1 protein (19-238) with a His-tagged at the C-terminus; purchased AcroBiosystems PD1-H5229 (PD-L1); PD1-H5257 (PD-1)
T1 sequence (Q9NZQ7 19-238): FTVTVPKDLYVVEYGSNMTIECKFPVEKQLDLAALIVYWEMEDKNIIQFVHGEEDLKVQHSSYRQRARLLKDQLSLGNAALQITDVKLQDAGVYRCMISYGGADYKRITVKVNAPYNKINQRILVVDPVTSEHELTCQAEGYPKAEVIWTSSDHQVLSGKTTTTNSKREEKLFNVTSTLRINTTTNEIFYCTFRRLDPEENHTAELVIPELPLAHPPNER
Nature of the assay: PD-1/PD-L1 Homogeneous Time-Resolved Fluorescence (HTRF) Binding Assay. Conditions: 25° C., PBS pH 7.4, ~3 nM PD1, 10 nM PD-L1. As for the experimental part: Example A: PD-1/PD-L1 Homogeneous Time-Resolved Fluorescence (HTRF) Binding Assay
Assays were performed in standard black 384-well polystyrene plates and a final volume was 20 μL. The inhibitor was first serially diluted with DMSO and added to the wells of the plate, followed by the addition of other reaction components. The final concentration of DMSO in the assay was 1%. Assays were performed at 25° C. in PBS buffer (pH 7.4) containing 0.05% Tween-20 and 0.1% BSA. Recombinant human PD-L1 protein (19-238) with a His-tagged at the C-terminus was purchased from AcroBiosystems (PD1-H5229). Recombinant human PD-1 protein (25-167) with an Fc tag at the C-terminus was also purchased from AcroBiosystems (PD1-H5257). The PD-L1 and PD-1 proteins were diluted in assay buffer and then […] of the solution was extracted and added to the wells of the plate. Plates were centrifuged and proteins and inhibitors were preincubated for 40 minutes. After incubation, 0.1 μl of HTRF detection buffer containing europium […] labeled anti-human IgG (PerkinElmer-AD0212), Fc-specific and anti-His SureLight®-Allophycocyanin (APC, PerkinElmer-AD0059H) conjugated antibodies was added. After centrifugation, the plates were incubated at 25° C. for 60 minutes. Data was read in a PHERAstar FS plate reader (665 nm/620 nm ratio). Final concentrations in the assay were ˜3 nM PD1, 10 nM PD-L1, 1 nM europium anti-human IgG, and 20 nM anti-His-allophycocyanin. Activity data were fitted using GraphPad Prism 5_0 software to derive IC50 values for inhibitors.
(In TR-FRET formats the signal depends on donor and acceptor labels being close together.)
Regarding `COc1nc(O[C@H]2CCc3c(-c4cccc(-c5nc6cc7c(c(C#N)c6o5)CC[C@H]7N5CC[C@@H](C(=O)O)C5)c4Cl)cccc32)c(C(F)F)cc1CN1CC[C@@H](O)C1` [Compound 086], the IC50 was ≤ 10 nM. Take `COc1nc(O[C@H]2CCc3c(-c4cccc(-c5cc6cc7c(c(C#N)c6o5)CC[C@H]7N5CC[C@@H](C(=O)NS(=O)(=O)C6CC6)C5)c4C)cccc32)c(Cl)cc1CN1CC[C@@H](O)C1` [Compound 080]: the IC50 was ≤ 10 nM. `COc1nc(O[C@H]2CCc3c(-c4cccc(-c5nc6cc7c(c(C#N)c6o5)CC[C@H]7N5CC[C@@H](C(=O)NS(=O)(=O)C6CC6)C5)c4C)cccc32)ccc1CN1CC[C@@H](O)C1` [Compound 094]: the IC50 is ≤ 10 nM. As to `COc1nc(O[C@H]2CCc3c(-c4cccc(-c5nc6cc7c(c(C#N)c6o5)CC[C@H]7N5CC[C@@H](C(=O)NS(=O)(=O)C6(C)CC6)C5)c4C)cccc32)ccc1CN1CC[C@@H](O)C1` [Compound 095], the IC50 was ≤ 10 nM. For `COc1nc(O[C@H]2CCc3c(-c4cccc(-c5nc6cc7c(c(C#N)c6o5)CC[C@H]7N5CC[C@@H](C(=O)NS(=O)(=O)C6(C)CC6)C5)c4C)cccc32)c(Cl)cc1CN1CC[C@@H](O)C1` [Compound 098], the IC50 is ≤ 10 nM. In the case of `COc1nc(O[C@H]2CCc3c(-c4cccc(-c5nc6cc7c(c(C#N)c6o5)CCC7N5CC[C@@H](C(=O)O)C5)c4C)cccc32)ccc1CN1CC[C@@H](O)C1` (stereo partly drawn) [Compound 003] it was ≤ 10 nM; in that of `COc1nc(O[C@H]2CCc3c(-c4cccc(-c5nc6cc7c(c(C#N)c6o5)CC[C@H]7N5CC[C@@H](C(=O)NS(=O)(=O)C6CC6)C5)c4Cl)cccc32)c(C(F)F)cc1CN1CC[C@@H](O)C1` [Compound 088], ≤ 10 nM; in that of `COc1nc(O[C@H]2CCc3c(-c4cccc(-c5nc6cc7c(c(C#N)c6o5)CC[C@H]7N5CC[C@@H](C(=O)NS(=O)(=O)C6CC6)C5)c4C)cccc32)c(Cl)cc1CN1CC[C@@H](O)C1` [Compound 079], ≤ 10 nM. On to `COc1nc(O[C@H]2CCc3c(-c4cccc(-c5nc6cc7c(c(C#N)c6o5)CC[C@H]7N5CC[C@@H](C(=O)NS(=O)(=O)C6(C)CC6)C5)c4C)cccc32)c(Cl)cc1CN1CC2(CCC(=O)N2)C1` [Compound 090], for which the IC50 was ≤ 10 nM. For the compound `COc1nc(O[C@H]2CCc3c(-c4cccc(-c5cc6cc7c(c(C#N)c6o5)CCC7N5CC[C@@H](C(=O)O)C5)c4C)cccc32)ccc1CN1CC[C@@H](O)C1` (stereo partly drawn) [Compound 001], the IC50 is ≤ 10 nM. Turning to `COc1nc(O[C@H]2CCc3c(-c4cccc(-c5nc6cc7c(c(C#N)c6o5)CCC7N5CC[C@@H](C(=O)O)C5)c4Cl)cccc32)c(Cl)cc1CN1CC[C@@H](O)C1` (stereo partly drawn) [Compound 005], the IC50 was ≤ 10 nM.

As for `COc1nc(O[C@H]2CCc3c(-c4cccc(-c5nc6cc7c(c(C#N)c6o5)CC[C@H]7N5CC[C@@H](C(=O)NS(=O)(=O)C6CC6)C5)c4C)cccc32)c(C(F)F)cc1CN1CC[C@@H](O)C1` [Compound 087], the IC50 is ≤ 10 nM. As to `COc1nc(O[C@H]2CCc3c(-c4cccc(-c5nc6cc7c(c(C#N)c6o5)CC[C@H]7N5CC[C@@H](C(=O)NS(=O)(=O)C6(C)CC6)C5)c4Cl)cccc32)ccc1CN1CC[C@@H](O)C1` [Compound 097], the IC50 is ≤ 10 nM. For the compound `COc1nc(O[C@H]2CCc3c(-c4cccc(-c5nc6cc7c(c(C#N)c6o5)CC[C@H]7N5CC[C@@H](C(=O)NS(=O)(=O)C6CC6)C5)c4Cl)cccc32)c(Cl)cc1CN1CC2(CCC(=O)N2)C1` [Compound 083], the IC50 is ≤ 10 nM. Regarding `COc1nc(O[C@H]2CCc3c(-c4cccc(-c5nc6cc7c(c(C#N)c6o5)CC[C@H]7N5CC[C@@H](C(=O)O)C5)c4Cl)cccc32)c(Cl)cc1CN1CC[C@@H](O)C1` [Compound 006], the half-inhibitory concentration (IC50) was ≤ 10 nM. Take `COc1nc(O[C@H]2CCc3c(-c4cccc(-c5nc6cc7c(c(C#N)c6o5)CCC7N5CC[C@@H](C(=O)O)C5)c4Cl)cccc32)ccc1CN1CC[C@@H](O)C1` (stereo partly drawn) [Compound 004]: the IC50 was ≤ 10 nM. For `COc1nc(O[C@H]2CCc3c(-c4cccc(-c5nc6cc7c(c(C#N)c6o5)CC[C@H]7N5CC[C@@H](C(=O)O)C5)c4C)cccc32)ccc1CN1CC[C@@H](O)C1` [Compound 091], the half-inhibitory concentration (IC50) is ≤ 10 nM.

Take `COc1nc(O[C@H]2CCc3c(-c4cccc(-c5nc6cc7c(c(C#N)c6o5)CC[C@H]7N5CC[C@@H](C(=O)NS(=O)(=O)C6CC6)C5)c4Cl)cccc32)c(Cl)cc1CNC[C@H]1CCC(=O)N1` [Compound 081]: the IC50 is ≤ 10 nM. Take `COc1nc(O[C@H]2CCc3c(-c4cccc(-c5nc6cc7c(c(C#N)c6o5)CC[C@H]7N5CC[C@@H](C(=O)NS(=O)(=O)C6(C)CC6)C5)c4Cl)cccc32)c(Cl)cc1CN1CC[C@@H](O)C1` [Compound 096]: the IC50 is ≤ 10 nM. In the case of `COc1nc(O[C@H]2CCc3c(-c4cccc(-c5nc6cc7c(c(C#N)c6o5)CC[C@H]7N5CC[C@@H](C(=O)NS(=O)(=O)C6CC6)C5)c4Cl)cccc32)ccc1CN1CC[C@@H](O)C1` [Compound 093], the IC50 was ≤ 10 nM. As for `COc1nc(O[C@H]2CCc3c(-c4cccc(-c5nc6cc7c(c(C#N)c6o5)CC[C@H]7N5CC[C@@H](C(=O)O)C5)c4Cl)cccc32)ccc1CN1CC[C@@H](O)C1` [Compound 092], the IC50 was ≤ 10 nM.

Broadly, the IC50 is the concentration at which inhibition is half-maximal. A low value points to higher potency.
